Data published in PubChem BioAssay (NCI).
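Cultured in 96-well plates, cells were exposed to test compound for 48 hours across five concentrations. GI50 = concentration required for 50% inhibition of growth. TGI: concentration producing complete growth inhibition.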 Where a SMILES comes first, the peptide text is derived from it. [ ]: non-standard residue; d: D form. The star is where a group is joined. AllylGly = C=CC[CH](N)C(=O)O; Boc = CC(C)(C)OC(=O)*; OtBu = CC(C)(C)O*

Tests used:
Assay in all cases: NCI-60 cell line screen, 48 h
[1] = system: A549 NSCLC
[2] = system: KM12 colon
[3] = system: SF-268 CNS
[4] = system: MDA-MB-231 breast
[5] = system: HOP-92 NSCLC
[6] = system: EKVX NSCLC
[7] = system: 786-0 renal
[8] = system: UO-31 renal
[9] = system: OVCAR-3 ovarian
[10] = system: MDA-MB-435
[11] = system: MDA-N

Row | Structure (SMILES) | TGI [1] | TGI [2] | TGI [3] | TGI [4] | TGI [5] | TGI [6] | TGI [7] | TGI [8] | TGI [9] | TGI [10] | TGI [11] | GI50 [1] | GI50 [2] | GI50 [3] | GI50 [4] | GI50 [5] | GI50 [6] | GI50 [8] | GI50 [9] | GI50 [10]
1 | Cc1ccc(S(=O)(=O)NN=C2CCCCCCCCCCC2)cc1 | > 100 µM | > 100 µM | > 100 µM | > 100 µM | > 100 µM | > 100 µM | > 100 µM | > 100 µM | > 100 µM | > 100 µM | > 100 µM |  |  |  |  |  |  |  |  | 
2 | C=CCC(NC(=O)C(CC(=O)OC(C)(C)C)NC(=O)OC(C)(C)C)C(=O)OC (stereo not drawn) (Boc-Asp(OtBu)-[AllylGly]-OMe; configuration not given here) | > 100 µM | > 100 µM | > 100 µM | > 100 µM | > 100 µM | > 100 µM | > 100 µM | > 100 µM | 61.4 µM | > 91.3 µM | > 79.7 µM |  |  |  |  |  |  |  |  | 
3 | CC(OC(=O)NCn1cc(-c2ccccc2)nn1)c1ccccc1 (stereo not drawn) | > 100 µM | > 100 µM |  | > 100 µM | > 100 µM | > 100 µM | > 100 µM |  |  | > 100 µM |  |  |  |  |  |  |  |  |  | 
4 | O=C1Nc2cccc(Cl)c2/C1=C\c1c(Cl)nc2sccn12 | > 100 µM | > 100 µM | 52.5 µM | 40.3 µM | 46.2 µM | > 100 µM | 24.6 µM | > 100 µM | > 100 µM | > 100 µM | > 100 µM |  |  |  |  |  |  |  |  | 
5 | CC1(c2nc3cc(Cl)c(Cl)cc3[nH]2)CCC(CO)C(C)(C)O1 (stereo not drawn) | > 100 µM | 38.6 µM | > 100 µM | 77.6 µM | > 100 µM | 87 µM | > 100 µM | 39.9 µM | 74.3 µM | > 100 µM | > 100 µM |  |  |  |  |  |  |  |  | 
6 | CN1CN(c2ccccc2)C2(CCN(CCCSc3ccccc3NC(=O)/C=C/c3ccccc3)CC2)C1=O | > 87.3 µM | 17.9 µM | > 46 µM | 3.32 µM |  | 44.5 µM | 29.9 µM | 14.1 µM | 13.3 µM | 6.91 µM | 6.33 µM |  |  |  |  |  |  |  |  | 
7 | COc1ccc(/C=C2\C[C@H]3[C@@H]4CCC5=C[C@@H](N6CCCC6)CC[C@]5(C)[C@H]4CC[C@]3(C)[C@H]2O)cc1 | 7.59 µM | 8.02 µM | 11.6 µM | 4.6 µM | 9.51 µM | 17 µM | 2.94 µM | 3.26 µM | 8.26 µM | 4.47 µM | 3.73 µM |  |  |  |  |  |  |  |  | 
8 | CC1(C)N=C(C(N)=O)c2ncn(-c3ccccc3)c2N1 | > 100 µM | > 100 µM | > 100 µM | > 100 µM |  | > 100 µM | > 100 µM |  | > 100 µM | > 100 µM | > 100 µM |  |  |  |  |  |  |  |  | 
9 | CN(NC(=O)CCCl)C1=NCCN1 | > 100 µM | > 100 µM | > 100 µM | > 100 µM | > 100 µM | > 100 µM | > 100 µM | > 100 µM | > 100 µM | > 100 µM | > 100 µM |  |  |  |  |  |  |  |  | 
10 | CC(C)(C)NN=C1C(C)(C)C(=NNC(C)(C)C)C1(C)C | > 100 µM | > 100 µM | > 100 µM |  | > 100 µM |  | > 100 µM | > 100 µM | > 100 µM |  |  |  |  |  |  |  |  |  |  | 
11 | COc1cc(CCCOC(=O)/C=C/c2ccc(O)c(O)c2)cc(O)c1O | > 100 µM | > 100 µM | 84.5 µM | 91.7 µM |  | > 100 µM | > 100 µM | > 100 µM | > 100 µM | > 100 µM | 53.7 µM |  |  |  |  |  |  |  |  | 
12 | CC1(C2(C)OC(=O)c3ccccc32)OC(=O)c2ccccc21 (stereo not drawn) | > 100 µM | > 100 µM | > 100 µM | > 100 µM | > 100 µM |  | > 100 µM | > 100 µM | > 100 µM | > 100 µM | > 100 µM |  |  |  |  |  |  |  |  | 
13 | O=c1[nH]c(=O)n(C2CC(O)C(CO)O2)cc1OCCCc1ccccc1 (stereo not drawn) | > 100 µM | > 100 µM | > 100 µM | > 100 µM |  | > 100 µM | > 100 µM | > 100 µM | > 100 µM | > 100 µM | > 100 µM |  |  |  |  |  |  |  |  | 
14 | O=c1[nH]c(Nc2cccc(C(F)(F)F)c2)nc2nc[nH]c12 | > 100 µM | > 100 µM | > 100 µM | > 100 µM | > 100 µM | > 100 µM | > 100 µM |  | > 100 µM | > 100 µM | > 100 µM |  |  |  |  |  |  |  |  | 
15 | Cc1cccc2c1Oc1ccccc1C2NC(=O)c1ccc([N+](=O)[O-])cc1 (stereo not drawn) | > 100 µM | > 100 µM | > 100 µM | > 100 µM | > 100 µM | > 100 µM | > 100 µM | > 100 µM | > 100 µM |  | > 100 µM |  |  |  |  |  |  |  |  | 
16 | COC1=CC(=O)[C@H]2[C@H](C)C(c3ccccc3)[C@@]2(C)C1=O (stereo partly drawn) | > 100 µM | > 100 µM | > 100 µM |  | > 100 µM | > 100 µM | > 100 µM | > 100 µM | > 100 µM |  |  |  |  |  |  |  |  |  |  | 
17 | COc1cccc(NC(=S)Nn2c(C)nc3ccccc3c2=O)c1 | > 100 µM | > 100 µM | > 100 µM |  | > 100 µM |  | > 100 µM | > 100 µM |  |  |  |  |  |  |  |  |  |  |  | 
18 | CCCn1c(SCC)c2ccccc2c1-c1nc(F)nc(F)n1 | > 100 µM | > 100 µM | > 100 µM |  | > 100 µM | > 100 µM | > 100 µM | > 100 µM | > 100 µM |  |  |  |  |  |  |  |  |  |  | 
19 | CCNC1(c2cccc(C)c2)OC(C)(C)c2cccc3cccc1c23 (stereo not drawn) | 30.9 µM | 69.8 µM | 30.9 µM |  | 22.4 µM | 38 µM | 37.6 µM | 29.8 µM | 33.2 µM | 33.2 µM | 36.8 µM |  |  |  |  |  |  |  |  | 
20 | Nc1c(-c2nc3ccccc3s2)c2ccc([N+](=O)[O-])cc2c(=O)n1-c1cccc(C(=O)O)c1 | > 100 µM | > 100 µM | > 100 µM | 37.8 µM | 72.9 µM |  | > 100 µM | 71.8 µM |  | > 100 µM | > 100 µM |  |  |  |  |  |  |  |  | 
21 | COCC1CCCN1c1ccc(/C=C(/C#N)C(N)=S)cc1 (stereo not drawn) | > 100 µM | > 100 µM | > 100 µM | 55.8 µM | 89.2 µM | > 100 µM |  | > 100 µM | > 100 µM | > 100 µM |  | > 100 µM | 39.5 µM | > 100 µM | 9.89 µM | 8.32 µM | > 100 µM | > 100 µM | > 100 µM | 15 µM
